9 compounds from a compilation of properties of binary mixtures (doi:10.1007/s10953-012-9937-x) can be followed below.

A word on the viscosity: it is the internal friction of a fluid under shear.

Structures are written as SMILES.

This data set in a line: xn = mol fraction of the nth substance listed. The conditions noted are these: 298.15 K, 101 kPa.

With `CCCCCCCCn1cc[n+](C)c1.F[B-](F)(F)F` + CCC(C)=O, the viscosity is, setting by setting: (x2 = 0) 336 mPa·s; (x2 = 0.209) 100.3 mPa·s; (x2 = 0.2713) 69.9 mPa·s; (x2 = 0.3991) 34.24 mPa·s; (x2 = 0.5032) 18.4 mPa·s; (x2 = 0.551) 13.82 mPa·s. The viscosity reads like this: (x2 = 0.6006) 10.26 mPa·s; (x2 = 0.6442) 7.54 mPa·s; (x2 = 0.9518) 0.63 mPa·s.

As to `CCC(C)=O` + CCCCCCCCn1cc[n+](C)c1.F[B-](F)(F)F, the viscosity (x1 = 1) is 0.39 mPa·s.

Under “x1 = 1”, `CCCOC(C)=O` + CCCCCCCCn1cc[n+](C)c1.F[B-](F)(F)F registered a viscosity of 0.56 mPa·s.

For the compound `CCOC(C)=O` + CCCCCCCCn1cc[n+](C)c1.F[B-](F)(F)F, the viscosity (x1 = 1) is listed as 0.44 mPa·s.

In turn, `COC(C)=O` + CCCCCCCCn1cc[n+](C)c1.F[B-](F)(F)F registered a viscosity (x1 = 1) of 0.39 mPa·s.

Consider `CCCCCCCCn1cc[n+](C)c1.F[B-](F)(F)F` + CCCCOC(C)=O, for which the viscosity by setting is: (x2 = 0) 336 mPa·s; (x2 = 0.1989) 124.4 mPa·s; (x2 = 0.3002) 74.3 mPa·s; (x2 = 0.3991) 45.91 mPa·s; (x2 = 0.502) 27.13 mPa·s; (x2 = 0.5548) 20.31 mPa·s. The compound further registered a viscosity (x2 = 0.6024) of 15.79 mPa·s; a viscosity (x2 = 0.654) of 11.56 mPa·s; a viscosity (x2 = 0.7075) of 8.27 mPa·s; a viscosity (x2 = 0.8007) of 4.31 mPa·s; a viscosity (x2 = 0.95) of 1.14 mPa·s.

In the case of `CCCCCCCCn1cc[n+](C)c1.F[B-](F)(F)F` + CCCOC(C)=O, the viscosity runs as follows: (x2 = 0) 336 mPa·s; (x2 = 0.1006) 198.9 mPa·s; (x2 = 0.197) 121.1 mPa·s; (x2 = 0.2972) 75.8 mPa·s; (x2 = 0.4992) 25.67 mPa·s; (x2 = 0.6013) 14.19 mPa·s. The viscosity turned out to be 10.55 mPa·s (x2 = 0.6504); 7.48 mPa·s (x2 = 0.7065); 3.75 mPa·s (x2 = 0.7992); 1.51 mPa·s (x2 = 0.9043); 0.91 mPa·s (x2 = 0.9529).

As to `CCCCCCCCn1cc[n+](C)c1.F[B-](F)(F)F` + CCOC(C)=O, the viscosity runs as follows: (x2 = 0) 336 mPa·s; (x2 = 0.1092) 181 mPa·s; (x2 = 0.2953) 69.8 mPa·s; (x2 = 0.4999) 23.13 mPa·s; (x2 = 0.5507) 17.01 mPa·s; (x2 = 0.7012) 6.56 mPa·s. Moreover, the viscosity (x2 = 0.9005) is recorded as 1.284 mPa·s.

For `CCCCCCCCn1cc[n+](C)c1.F[B-](F)(F)F` + COC(C)=O, the viscosity stood at 336 mPa·s (x2 = 0); 188 mPa·s (x2 = 0.1173); 70 mPa·s (x2 = 0.2964); 34.24 mPa·s (x2 = 0.4063); 24.78 mPa·s (x2 = 0.4511); 18.4 mPa·s (x2 = 0.4964). Moreover, the viscosity runs as follows: (x2 = 0.6056) 10.26 mPa·s; (x2 = 0.6519) 7.54 mPa·s; (x2 = 0.7027) 5.04 mPa·s; (x2 = 0.8989) 1.03 mPa·s.
